Test results published in article PMC7563551, “The Cytokine IL-1β and Piperine Complex Surveyed by Experimental and Computational Molecular Biophysics” (Biomolecules, 2020).

Biological target: T1, IL-1β (interleukin-1 beta) (Homo sapiens, UniProt P01584)
T1 construct: gene IL1B; 153 residues, single Trp120 and extinction coefficient 11,460 fit the human mature chain; docking model 1ITB chain A
Assay: Trp120 fluorescence quenching titration, interaction density function with Scatchard plot
Type: binding
Details: read-out: Kb

T1 sequence (P01584 117-269): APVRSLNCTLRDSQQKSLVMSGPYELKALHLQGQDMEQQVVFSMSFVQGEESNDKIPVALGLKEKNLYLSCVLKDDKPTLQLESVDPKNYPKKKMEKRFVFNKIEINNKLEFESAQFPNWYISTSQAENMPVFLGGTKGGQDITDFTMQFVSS

`O=C(/C=C/C=C/c1ccc2c(c1)OCO2)N1CCCCC1` [piperine] gave a Kd of 6.99 µM.
